According to patent EP1263420B1 (priority 2000, dated 2001):
Entries after “also recorded” stand apart in the source; their conditions may differ.

Experiments:
[1] = tested on: RARγ; assay: Western blot of SENCAR mouse liver after dietary RA; assay type: in vivo; settings: for RARγ densitometric analysis: male SENCAR mouse liver
Experimental: (§1) The experimental groups were divided in two groups of five mice (Table 5) each including a low and high dose group that were fed either a physiological RA diet of 3µg/g diet) or a pharmacological RA diet (30µg/g diet) for 75 weeks, respectively.
(§2) SENCAR mice (30) were divided into six experimental groups. The experimental groups were as follows (Table 7): groups 1, 3 and 5 (5 mice each) were fed a physiological RA diet (3µg/g diet) for 1, 14 and 28 days; groups 2, 4 and 6 (each of 5 mice) were fed a pharmacological RA diet (30µg/g diet) for 1, 14 and 28 days.
(§3) Polyclonal rabbit anti-mouse antibodies against RAR, and (SANTA CRUZ Biotechnology Inc., San Francisco, CA) were used. BM Chemiluminescense Western Blotting Kit (Mouse/Rabbit) was used (Boehringer Mannheim Corporation, Indianapolis) for the Westerns.
(§4) Tissues were collected, frozen in dry ice and kept at -70°C until used. 500mg aliquots were diced in small pieces and homogenized in 300µl of cold PBS, using the hand held homogenizer for 2~3 minutes. Sample and washes were centrifuged at 5000xg for 20 minutes. The pellet was suspended in 400 µl of ice-cold Buffer A [2µl 0.5M EDTA, 10µl 100mM EGTA, 50µl 100mM PMSF, 10µl 1M DTT, 10ml (10mM HEPES pH 7.9 + 10mM KCl)], and left at ice temperature for 15 minutes. 25 µl of 10% solution of NP-40 was added and samples were mixed in a vortex vigorously for 10 seconds. Samples were centrifuged at 14,000xg for 1 minute at 4°C and the pellet treated once more in this fashion (resuspended etc.). The supernatant was removed and 100µl of ice-cold Buffer C [4µl 0.5M EDTA, 20µl 100mM EGTA, 20µl 100mM PMSF, 2µl 1 M DTT, 2ml (20mM HEPES pH 7.9 + 0.4M NaCl)] was added. Pellets were resuspended by tapping gently on the bottom of the Eppendorf tubes. Samples were rocked vigorously in a bucket of ice on an orbital shaker for 30 minutes. Samples were centrifuged at 14,000 xg for 5 minutes at 4°C. Protein determination of supernatant was conducted by the Bradford method.
(§5) Samples were prepared by adding one part of the Sample Buffer to one part of the sample and mixing well. Samples were heated at 95°C for 5 minutes to induce denaturation. 5µl of Rainbow Standard and 5µl ofBiotinylated Molecular Marker were added to parallel wells. 20µg protein per sample was loaded in each lane. Electrophoresis was performed with voltage set at 125V for about 1 ~ 1.5 hours. Gel transfer was executed at 25V for 2 hours. The membrane was stained in Ponceau S. for 5 minutes and destained with one wash of 5% acetic acid. The membrane was then washed in TBS solution until the staining disappeared. Membranes were incubated in 1ml blocking solution and 9ml TBS for 60 minutes. Membranes were incubated in 1ml of blocking solution and 19ml TBS along with 20µl primary antibody solution overnight (dilution of 1 : 1000). Membranes were washed in PBS-Tween 20, 3 times for 10 minutes each. They were finally incubated in 1ml blocking solution and 19ml TBS along with 20µl Antibiotin HRP - Linked Antibody and 2µl of secondary (rabbit anti-mouse antibody) (1 : 10,000 dilution) for 30 minutes. The membranes were washed in PBS - Tween 20, 4 times for 10 minutes each. The film was exposed for development and detection.

[2] = tested on: RARβ; assay: as above; assay type: in vivo; settings: for RARβ densitometric analysis: male SENCAR mouse liver
Experimental: as §1, §2, §3, §4, §5

[3] = tested on: RARα; assay: as above; assay type: in vivo; settings: for RARα densitometric analysis: male SENCAR mouse liver
Experimental: as §1, §2, §3, §4, §5

[4] = tested on: TGase II; assay: TGase II assay of SENCAR mouse liver tissue after dietary RA; assay type: in vivo; settings: 75 Weeks
Experimental: The supernatant was removed and kept in ice until used.
Reactions were slowed down in an ice bath. […] Protein concentration determination was conducted by the Bradford method.

[5] = tested on: lung tissue RARs; assay: Western blot of SENCAR mouse lung tissue after dietary RA; assay type: in vivo
Experimental: as §1, §2, §3
Tissues were collected, frozen in dry ice and kept at -70°C until used. 500mg aliquots were diced in small pieces and homogenized in 300µl of cold PBS, using the hand held homogenizer for 2~3 minutes. Sample and washes were centrifuged at 5000xg for 20 minutes. The pellet was suspended in 400 µl of ice-cold Buffer A [2µl 0.5M EDTA, 10µl 100mM EGTA, 50µl 100mM PMSF, 10µl 1M DTT, 10ml (10mM HEPES pH 7.9 + 10mM KCl)], and left at ice temperature for 15 minutes. 25 µl of 10% solution of NP-40 was added and samples were mixed in a vortex vigorously for 10 seconds. […]

[6] = tested on: TGase II; assay: TGase II activity in cultured MCF-7 cells; assay type: cell-based, human
Experimental: MCF-7 cells were seeded at a density of 1.5 x 10^5 cells/ml medium (500ml DMEM + 56.2ml FBS + 5.6m1 AB/AM) in 6cm diameter dishes for 24 hours and treated with either DMSO, RA, or 13-cis RA at 10^-6 M and grown to confluence (about 72 hours). Cells were harvested and Transglutaminase II activity was measured as described below. Nebulizer solution, inhalation procedures, details of animal housing are described below.
Cultured cells were placed in 100 µl scraping buffer [A: 2800µl (400µl 0.5M Na-Phosphate, 500µl 0.01M EDTA, 100µl 1M DTT , 9ml PBS total 10ml) + B:700µl (10µl 20mg/ml PMSF 790µl PBS total 800µl)] for each dish. Cells were broken by a sonicator and kept in ice until used. TGase II assay was conducted as described below and previously {8217}.
Enzyme assay mixtures were prepared by adding 80µl of SUBSTRATE mixture (322.8µl H2O, 120µl 0.5M NaBorate, 60µl 0.01M EDTA, 60µl 0.1M CaCl2, 6µl 1M DTT, 240µl dimethyl casein, 30µl Triton X-100, 1.2µl [^3H]-Putrescine, 120µl Putrescine) to 20µl sample, 20µl scraping buffer for blank control , 20 µl (18µl scraping buffer + 2µl TGase II) for positive control. Samples were mixed in 15ml tubes, the tubes were shaken before putting them into a 28°C water bath for 30 minutes. Reactions were slowed down in an ice bath. 80µl of the incubation mixture was adsorbed onto paper disks. These were immediately dropped into cold 10% TCA (0.1% Putrescine) and washed with agitation for 7 minutes, followed by 2 additional washes with 5% TCA (0.05% putrescine) for 5~7 minutes, and once more with cold (-20°C) 95% ethanol for 5 minutes. Paper disks were dried and placed into 5ml Aquasol, and counted in a Liquid Scintillation Counter. Protein concentration determination was conducted by the Bradford method.

[7] = 30µg/g diet versus 3µg/g diet, 75 weeks
[8] = pharmacological dietary RA over physiological RA (3µg/g diet), day 1

**Q.** With `CC1=C(/C=C/C(C)=C/C=C/C(C)=C/C(=O)O)C(C)(C)CCC1` [RA, all-trans-retinoic acid] as the compound, how does the “upregulated liver RAR (γ)” value [1, 7] read?
**A.** 12.5 fold

**Q.** And the RARγ densitometric analysis ([1]; 3pg/g diet as printed, 75 weeks)?
**A.** 23.1 +/- 6.7 IDV

**Q.** And the RARγ densitometric analysis ([1]; 30µg/g diet, 75 weeks)?
**A.** 288 +/- 17.4 IDV

**Q.** And the “stimulated liver RAR (γ)” value [1, 8]?
**A.** 2.1 fold

**Q.** And the “upregulated liver RAR (β)” value [2, 7]?
**A.** 13.5 fold

**Q.** What about the RARβ densitometric analysis ([2]; 3µg/g diet, 75 weeks) of the same compound?
**A.** 18.9 +/- 7.4 IDV

**Q.** What about the RARβ densitometric analysis ([2]; 30µg/g diet, 75 weeks) of the same compound?
**A.** 254 +/- 31.9 IDV

**Q.** What about the “stimulated liver RAR (β)” value [2, 8] of the same compound?
**A.** 4 fold

**Q.** What about the “upregulated liver RAR (α)” value [3, 7] of the same compound?
**A.** 21.8 fold

**Q.** What about the RARα densitometric analysis ([3]; 3µg/g diet, 75 weeks) of the same compound?
**A.** 12.1 +/- 7.2 IDV

**Q.** What about the RARα densitometric analysis ([3]; 30µg/g diet, 75 weeks) of the same compound?
**A.** 264 +/- 21.3 IDV

**Q.** And the “stimulated liver RAR (α)” value [3, 8]?
**A.** 2 fold

**Q.** What about the “TGase II assay DPM/µg protein” value ([4]; pharmacological RA diet 30µg/g) of the same compound?
**A.** 49,260 DPM/µg protein

**Q.** What about the “TGase II assay DPM/µg protein” value ([4]; physiological RA diet 3µg/g) of the same compound?
**A.** 9,820 DPM/µg protein

**Q.** And the “induction of lung tissue RARs” value ([5]; long term feeding, 30µg/g diet)?
**A.** failed to induce RARs

**Q.** What about the “effect on lung tissue RARs” value ([5]; time course 1, 14 and 28 days, 30µg/g versus 3µg/g diet, not shown) of the same compound?
**A.** no effect; also recorded: without any measurable effect on lung tissue RARs

**Q.** What about the fold induction at 1 µM ([6]; Homo sapiens, MCF7, 72 h, read-out: stimulating TGase II activity) of the same compound?
**A.** 7.4

**Q.** And the “TGase II Activity” value ([6]; MCF-7 cells, 10^-6 M, 72 hours, DMSO control 0.183)?
**A.** 1.359 +/- 0.098 picomoles/µg protein/30 minutes
